Laboratory results as given in ChEMBL document CHEMBL5678816, “A Next-Generation TRK Kinase Inhibitor Overcomes Acquired Resistance to Prior TRK Kinase Inhibition in Patients with TRK Fusion-Positive Solid Tumors” (Cancer Discov, 2017).
Active and inactive are the calls of the source. The rule behind the calls is not given here.

Tests used:
NIH3T3 = assay: In vivo inhibition of […] in nu/nu NCr mouse implanted with mouse NIH3T3 cells harboring extracellular domain deleted […] G595R mutant assessed as reduction in […] phosphorylation administered orally twice daily for 3 days and measured after 2 hrs post last dose by ELISA; assay type: functional; details: dose 10-100 mg/kg, route po, time 3.0 day
MDA-MB-231 = assay: Inhibition of cell proliferation in human MDA-MB-231 cells upto 10 umol/L incubated for 72 hrs by DAPI staining based analysis; assay type: functional; details: dose <= 10.0 µmol/L
DK-MG = assay: Inhibition of cell proliferation in human DK-MG cells upto 10 umol/L incubated for 72 hrs by DAPI staining based analysis; assay type: functional; details: dose <= 10.0 µmol/L
AU565 = assay: Inhibition of cell proliferation in human AU565 cells upto 10 umol/L incubated for 72 hrs by DAPI staining based analysis; assay type: functional; details: dose <= 10.0 µmol/L
NCI-H292 = assay: Inhibition of cell proliferation in human NCI-H292 cells upto 10 umol/L incubated for 72 hrs by DAPI staining based analysis; assay type: functional; details: dose <= 10.0 µmol/L
Rec1 = assay: Inhibition of cell proliferation in human REC1 cells upto 10 umol/L incubated for 72 hrs by DAPI staining based analysis; assay type: functional; details: dose <= 10.0 µmol/L
SCaBER = assay: Inhibition of cell proliferation in human SCaBER cells upto 10 umol/L incubated for 72 hrs by DAPI staining based analysis; assay type: functional; details: dose <= 10.0 µmol/L
Caov-3 cell line = assay: Inhibition of cell proliferation in human Caov-3 cells upto 10 umol/L incubated for 72 hrs by DAPI staining based analysis; assay type: functional; details: dose <= 10.0 µmol/L
[1] = Cmax in adult patient with recurrent LMNA-NTRK1 rearranged colorectal cancer at 100 mg administered twice a day as powder-in-capsule or liquid formulation for 22 days by LC-MS/MS analysis; assay type: ADME; details: human, in vivo, oral, time 22 day
[2] = molecular target: Tyrosine-protein kinase Fgr (Homo sapiens) (UniProt P09769); assay: Inhibition of Fgr (unknown origin) at 1 uM in presence of ATP relative to control; values are per cent of control
[3] = molecular target: Mast/stem cell growth factor receptor Kit (Homo sapiens) (UniProt P10721); assay: Inhibition of KIT (unknown origin) at 1 uM in presence of ATP relative to control; values are per cent of control
Mast/stem cell growth factor receptor Kit (Homo sapiens), sequence (P10721 whole entry): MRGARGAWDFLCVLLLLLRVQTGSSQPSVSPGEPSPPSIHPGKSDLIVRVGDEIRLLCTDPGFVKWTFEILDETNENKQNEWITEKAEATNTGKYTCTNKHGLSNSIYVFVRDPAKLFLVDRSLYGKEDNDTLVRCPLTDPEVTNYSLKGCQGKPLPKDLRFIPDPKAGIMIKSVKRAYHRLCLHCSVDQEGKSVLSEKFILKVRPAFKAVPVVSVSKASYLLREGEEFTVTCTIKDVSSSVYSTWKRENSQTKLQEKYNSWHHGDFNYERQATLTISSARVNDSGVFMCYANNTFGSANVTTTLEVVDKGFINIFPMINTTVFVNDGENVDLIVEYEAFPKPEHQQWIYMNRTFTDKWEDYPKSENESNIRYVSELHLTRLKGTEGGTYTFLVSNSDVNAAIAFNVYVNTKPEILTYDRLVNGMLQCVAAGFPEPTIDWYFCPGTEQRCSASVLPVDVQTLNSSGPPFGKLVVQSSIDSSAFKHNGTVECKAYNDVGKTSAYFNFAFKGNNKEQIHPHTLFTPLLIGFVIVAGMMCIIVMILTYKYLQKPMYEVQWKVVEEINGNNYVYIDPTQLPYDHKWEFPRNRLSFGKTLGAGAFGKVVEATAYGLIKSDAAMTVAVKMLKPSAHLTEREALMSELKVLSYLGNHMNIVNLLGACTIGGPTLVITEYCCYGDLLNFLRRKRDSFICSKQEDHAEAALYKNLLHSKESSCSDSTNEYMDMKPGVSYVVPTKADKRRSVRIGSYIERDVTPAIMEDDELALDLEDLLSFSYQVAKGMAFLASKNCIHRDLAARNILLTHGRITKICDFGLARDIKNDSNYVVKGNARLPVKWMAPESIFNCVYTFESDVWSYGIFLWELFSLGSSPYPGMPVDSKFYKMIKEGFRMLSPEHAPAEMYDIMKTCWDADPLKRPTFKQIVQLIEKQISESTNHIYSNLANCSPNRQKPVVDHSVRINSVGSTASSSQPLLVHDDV

[4] = molecular target: Tyrosine-protein kinase Lyn (Homo sapiens) (UniProt P07948); assay: Inhibition of Lyn (unknown origin) at 1 uM in presence of ATP relative to control; values are per cent of control
Tyrosine-protein kinase Lyn (Homo sapiens), sequence (P07948 2-512 limits assumed): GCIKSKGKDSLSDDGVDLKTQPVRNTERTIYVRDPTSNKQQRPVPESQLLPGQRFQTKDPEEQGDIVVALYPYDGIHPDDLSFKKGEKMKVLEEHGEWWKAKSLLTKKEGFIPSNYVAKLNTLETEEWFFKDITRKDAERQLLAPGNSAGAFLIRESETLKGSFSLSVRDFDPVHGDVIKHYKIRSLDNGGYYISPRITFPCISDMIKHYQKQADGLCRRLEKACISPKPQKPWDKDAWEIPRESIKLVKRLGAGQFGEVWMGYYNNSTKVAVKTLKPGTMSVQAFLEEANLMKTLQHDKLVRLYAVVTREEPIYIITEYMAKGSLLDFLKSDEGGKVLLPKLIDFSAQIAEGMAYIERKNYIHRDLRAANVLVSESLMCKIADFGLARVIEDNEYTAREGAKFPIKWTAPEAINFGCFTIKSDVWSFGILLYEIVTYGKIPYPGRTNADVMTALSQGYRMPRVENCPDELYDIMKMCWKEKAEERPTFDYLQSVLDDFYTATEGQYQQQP

[5] = molecular target: Serine/threonine-protein kinase D2 (Homo sapiens) (UniProt Q9BZL6); assay: Inhibition of PKD2 (unknown origin) at 1 uM in presence of ATP relative to control; values are per cent of control
[6] = molecular target: Serine/threonine-protein kinase VRK2 (Homo sapiens) (UniProt Q86Y07); assay: Inhibition of VRK2 (unknown origin) at 1 uM in presence of ATP relative to control; values are per cent of control
[7] = molecular target: Serine/threonine-protein kinase Nek7 (Homo sapiens) (UniProt Q8TDX7); assay: Inhibition of NEK7 (unknown origin) at 1 uM in presence of ATP relative to control; values are per cent of control
Serine/threonine-protein kinase Nek7 (Homo sapiens), sequence (Q8TDX7 whole entry, looked up): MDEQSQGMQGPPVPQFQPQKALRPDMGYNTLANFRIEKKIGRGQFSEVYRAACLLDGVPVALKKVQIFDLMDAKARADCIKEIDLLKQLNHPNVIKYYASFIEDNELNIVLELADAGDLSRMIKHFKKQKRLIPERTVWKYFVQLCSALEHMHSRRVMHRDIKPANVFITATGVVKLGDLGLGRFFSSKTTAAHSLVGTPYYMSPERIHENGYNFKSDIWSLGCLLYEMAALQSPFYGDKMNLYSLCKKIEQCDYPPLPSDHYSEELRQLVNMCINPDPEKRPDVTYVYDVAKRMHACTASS

[8] = molecular target: Serine/threonine-protein kinase PLK1 (Homo sapiens) (UniProt P53350); assay: Inhibition of Plk1 (unknown origin) at 1 uM in presence of ATP relative to control; values are per cent of control
[9] = molecular target: Serine/threonine-protein kinase PLK3 (Homo sapiens) (UniProt Q9H4B4); assay: Inhibition of Plk3 (unknown origin) at 1 uM in presence of ATP relative to control; values are per cent of control
[10] = molecular target: Serine/threonine-protein kinase ULK2 (Homo sapiens) (UniProt Q8IYT8); assay: Inhibition of ULK2 (unknown origin) at 1 uM in presence of ATP relative to control; values are per cent of control
[11] = molecular target: Discoidin domain-containing receptor 2 (Homo sapiens) (UniProt Q16832); assay: Inhibition of DDR2 (unknown origin) at 1 uM in presence of ATP relative to control; values are per cent of control
Discoidin domain-containing receptor 2 (Homo sapiens), sequence (Q16832 whole entry, the tested form may be a part): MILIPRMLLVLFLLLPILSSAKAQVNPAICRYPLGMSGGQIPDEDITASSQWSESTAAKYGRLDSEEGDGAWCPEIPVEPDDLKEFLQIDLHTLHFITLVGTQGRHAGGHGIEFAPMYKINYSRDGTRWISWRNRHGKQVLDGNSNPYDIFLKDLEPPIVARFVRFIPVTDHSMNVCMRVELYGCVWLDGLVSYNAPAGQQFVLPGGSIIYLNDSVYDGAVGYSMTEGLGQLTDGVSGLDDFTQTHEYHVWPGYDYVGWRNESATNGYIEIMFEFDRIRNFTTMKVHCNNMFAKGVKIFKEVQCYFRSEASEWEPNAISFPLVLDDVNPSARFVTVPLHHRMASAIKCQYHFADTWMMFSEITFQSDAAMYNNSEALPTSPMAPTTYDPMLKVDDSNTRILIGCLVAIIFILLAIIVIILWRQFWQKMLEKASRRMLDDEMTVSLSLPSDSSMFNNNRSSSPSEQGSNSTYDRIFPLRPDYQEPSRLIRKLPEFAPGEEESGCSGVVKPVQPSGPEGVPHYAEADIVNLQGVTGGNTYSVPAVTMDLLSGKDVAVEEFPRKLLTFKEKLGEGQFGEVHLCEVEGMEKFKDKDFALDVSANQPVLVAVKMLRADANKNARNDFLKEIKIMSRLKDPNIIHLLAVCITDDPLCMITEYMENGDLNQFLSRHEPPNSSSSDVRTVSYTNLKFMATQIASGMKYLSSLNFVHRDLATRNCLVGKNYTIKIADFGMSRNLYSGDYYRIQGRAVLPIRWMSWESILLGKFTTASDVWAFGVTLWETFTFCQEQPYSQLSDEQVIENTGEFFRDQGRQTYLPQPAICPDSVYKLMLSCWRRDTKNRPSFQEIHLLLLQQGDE

[12] = molecular target: Protein-tyrosine kinase 2-beta (Homo sapiens) (UniProt Q14289); assay: Inhibition of FAK2 (unknown origin) at 1 uM in presence of ATP relative to control; values are per cent of control
[13] = molecular target: Aurora kinase A (Homo sapiens) (UniProt O14965); assay: Inhibition of AURKA (unknown origin) at 1 uM in presence of ATP relative to control; values are per cent of control
Homo sapiens = species: Homo sapiens; assay: Inhibition of Abl-P (unknown origin) at 1 uM in presence of ATP relative to control; values are per cent of control
[14] = molecular target: Ephrin type-A receptor 8 (Homo sapiens) (UniProt P29322); assay: Inhibition of EphA8 (unknown origin) at 1 uM in presence of ATP relative to control; values are per cent of control
[15] = molecular target: LIM domain kinase 1 (Homo sapiens) (UniProt P53667); assay: Inhibition of LIMK1 (unknown origin) at 1 uM in presence of ATP relative to control; values are per cent of control
LIM domain kinase 1 (Homo sapiens), sequence (P53667 whole entry, looked up, the tested form may be a part): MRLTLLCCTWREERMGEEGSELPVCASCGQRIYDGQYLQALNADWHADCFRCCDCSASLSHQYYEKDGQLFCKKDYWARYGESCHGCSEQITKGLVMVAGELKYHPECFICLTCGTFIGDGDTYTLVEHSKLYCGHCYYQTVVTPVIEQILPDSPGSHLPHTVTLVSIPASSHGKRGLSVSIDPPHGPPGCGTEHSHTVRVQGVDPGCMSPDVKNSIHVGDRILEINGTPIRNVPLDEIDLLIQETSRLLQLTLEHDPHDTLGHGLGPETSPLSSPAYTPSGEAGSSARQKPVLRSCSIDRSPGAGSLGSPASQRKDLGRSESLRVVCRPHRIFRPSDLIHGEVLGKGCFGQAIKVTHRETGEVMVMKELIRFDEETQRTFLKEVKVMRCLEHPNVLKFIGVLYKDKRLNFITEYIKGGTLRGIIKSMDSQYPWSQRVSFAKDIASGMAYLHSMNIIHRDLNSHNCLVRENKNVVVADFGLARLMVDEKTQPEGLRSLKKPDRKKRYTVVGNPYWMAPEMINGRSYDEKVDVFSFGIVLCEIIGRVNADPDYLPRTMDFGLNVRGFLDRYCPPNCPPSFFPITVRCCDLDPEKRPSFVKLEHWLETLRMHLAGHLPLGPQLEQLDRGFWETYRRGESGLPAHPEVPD

[16] = molecular target: Calcium/calmodulin-dependent protein kinase type II subunit delta (Homo sapiens) (UniProt Q13557); assay: Inhibition of CAMK2d (unknown origin) at 1 uM in presence of ATP relative to control; values are per cent of control
Calcium/calmodulin-dependent protein kinase type II subunit delta (Homo sapiens), sequence (Q13557 whole entry): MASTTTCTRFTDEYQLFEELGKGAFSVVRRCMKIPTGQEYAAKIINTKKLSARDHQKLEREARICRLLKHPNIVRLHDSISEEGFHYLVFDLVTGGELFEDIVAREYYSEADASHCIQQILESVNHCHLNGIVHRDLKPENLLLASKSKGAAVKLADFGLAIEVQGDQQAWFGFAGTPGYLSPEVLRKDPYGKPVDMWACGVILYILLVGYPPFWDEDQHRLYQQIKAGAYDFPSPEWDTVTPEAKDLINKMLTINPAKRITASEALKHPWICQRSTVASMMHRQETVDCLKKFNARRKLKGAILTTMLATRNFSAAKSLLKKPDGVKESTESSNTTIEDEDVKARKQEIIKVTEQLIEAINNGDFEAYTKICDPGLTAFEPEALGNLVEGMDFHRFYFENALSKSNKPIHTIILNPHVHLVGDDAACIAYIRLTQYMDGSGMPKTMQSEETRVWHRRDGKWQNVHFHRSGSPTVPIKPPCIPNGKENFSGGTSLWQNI

[17] = molecular target: Tyrosine-protein kinase ZAP-70 (Homo sapiens) (UniProt P43403); assay: Inhibition of ZAP-70 (unknown origin) at 1 uM in presence of ATP relative to control; values are per cent of control
Tyrosine-protein kinase ZAP-70 (Homo sapiens), sequence (P43403 whole entry): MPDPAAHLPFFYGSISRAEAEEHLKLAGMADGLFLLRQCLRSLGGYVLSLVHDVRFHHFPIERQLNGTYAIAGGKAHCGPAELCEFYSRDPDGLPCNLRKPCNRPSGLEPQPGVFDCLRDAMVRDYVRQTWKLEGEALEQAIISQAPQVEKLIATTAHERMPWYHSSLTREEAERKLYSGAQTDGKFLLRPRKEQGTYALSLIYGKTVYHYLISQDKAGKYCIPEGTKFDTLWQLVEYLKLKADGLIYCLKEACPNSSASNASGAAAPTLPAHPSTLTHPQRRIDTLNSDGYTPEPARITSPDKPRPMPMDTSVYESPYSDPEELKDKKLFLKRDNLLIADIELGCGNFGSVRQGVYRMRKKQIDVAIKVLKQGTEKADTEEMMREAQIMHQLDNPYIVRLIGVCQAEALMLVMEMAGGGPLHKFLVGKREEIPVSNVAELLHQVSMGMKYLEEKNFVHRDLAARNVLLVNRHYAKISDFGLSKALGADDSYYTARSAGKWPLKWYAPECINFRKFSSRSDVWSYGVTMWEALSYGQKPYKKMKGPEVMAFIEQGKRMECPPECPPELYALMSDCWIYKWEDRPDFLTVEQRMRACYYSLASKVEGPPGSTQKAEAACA

[18] = molecular target: Protein kinase C iota type (Homo sapiens) (UniProt P41743); assay: Inhibition of PKCiota (unknown origin) at 1 uM in presence of ATP relative to control; values are per cent of control
Protein kinase C iota type (Homo sapiens), sequence (P41743 whole entry, canonical isoform): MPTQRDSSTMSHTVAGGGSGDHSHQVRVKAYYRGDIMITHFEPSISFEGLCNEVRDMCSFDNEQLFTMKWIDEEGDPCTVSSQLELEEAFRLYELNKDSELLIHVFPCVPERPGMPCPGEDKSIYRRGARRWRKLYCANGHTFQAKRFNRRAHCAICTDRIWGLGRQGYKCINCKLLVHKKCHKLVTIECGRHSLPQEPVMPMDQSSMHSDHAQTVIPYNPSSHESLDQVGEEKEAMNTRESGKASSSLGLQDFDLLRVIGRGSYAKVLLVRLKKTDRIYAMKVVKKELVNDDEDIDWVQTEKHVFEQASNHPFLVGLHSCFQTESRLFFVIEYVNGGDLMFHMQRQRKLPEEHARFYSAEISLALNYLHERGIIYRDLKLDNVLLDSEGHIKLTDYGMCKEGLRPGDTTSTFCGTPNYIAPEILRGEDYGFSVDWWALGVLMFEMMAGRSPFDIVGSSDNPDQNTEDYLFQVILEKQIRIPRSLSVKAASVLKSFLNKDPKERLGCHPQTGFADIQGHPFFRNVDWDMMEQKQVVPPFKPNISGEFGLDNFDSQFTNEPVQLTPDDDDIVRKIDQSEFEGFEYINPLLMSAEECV

[19] = molecular target: Casein kinase I isoform gamma-2 (Homo sapiens) (UniProt P78368); assay: Inhibition of CK1gamma2 (unknown origin) at 1 uM in presence of ATP relative to control; values are per cent of control
[20] = molecular target: CDK9/cyclin T1 (Homo sapiens) (UniProt O60563+P50750); assay: Inhibition of CDK9/cyclinT1 (unknown origin) at 1 uM in presence of ATP relative to control; values are per cent of control

## C[C@@H]1CCc2ncc(F)cc2[C@H]2CCCN2c2ccn3ncc(c3n2)C(=O)N1 [SELITRECTINIB]
NIH3T3
  inhibition: Dose-Dependent Effect
MDA-MB-231
  inhibition: inactive
DK-MG
  inhibition: inactive
AU565
  inhibition: inactive
NCI-H292
  inhibition: inactive
Rec1
  inhibition: inactive
SCaBER
  inhibition: inactive
Caov-3 cell line
  inhibition: inactive
[1]
  Cmax: 800 ng/mL
[2]
  residual activity: 96%
[3]
  residual activity: 100%
[4]
  residual activity: 98%
[5]
  residual activity: 110%
[6]
  residual activity: 98%
[7]
  residual activity: 103%
[8]
  residual activity: 104%
[9]
  residual activity: 93.5%
[10]
  residual activity: 96%
[11]
  residual activity: 93%
[12]
  residual activity: 89%
[13]
  residual activity: 97%
Homo sapiens
  residual activity: 87%
[14]
  residual activity: 81.5%
[15]
  residual activity: 85.5%
[16]
  residual activity: 100%
[17]
  residual activity: 118%
[18]
  residual activity: 100%
[19]
  residual activity: 112%
[20]
  residual activity: 110%
